In patent publication US11111220B2, “Propanamine derivatives for treating pain and pain related conditions” (ESTEVE PHARMACEUTICALS, S.A., priority 2017, dated 2021):
Like-named read-outs stand apart in the source and are kept apart here.

Tests used:
[1] = target: Human α2δ-1 Subunit of Cav2.2 Calcium Channel (Homo sapiens, UniProt P54289); assay: Binding assay to human α2δ-1 subunit of Cav2.2 calcium channel ([3H]-Gabapentin); details: human α2δ-1 enriched membranes, 15 nM [3H]-Gabapentin, read-out: Ki(nM) alpha2delta Hum
Procedure: Binding Assay to Human α2δ-1 Subunit of Cav2.2 Calcium Channel.
Human α2δ-1 enriched membranes (2.5 μg) were incubated with 15 nM of radiolabeled [3H]-Gabapentin in assay buffer containing Hepes-KOH 10 mM, pH 7.4.
(§1) NSB (non specific binding) was measured by adding 10 μM pregabalin. The binding of the test compound was measured in five different concentrations. After 60 min incubation at 27° C., binding reaction was terminated by filtering through Multiscreen GF/C (Millipore) presoaked in 0.5% polyethyleneimine in Vacuum Manifold Station, followed by 3 washes with ice-cold filtration buffer containing 50 mM Tris-HCl, pH 7.4.
(§2) Filter plates were dried at 60° C. for 1 hour and 30 μl of scintillation cocktail were added to each well before radioactivity reading.
(§3) Readings were performed in a Trilux 1450 Microbeta radioactive counter (Perkin Elmer).

[2] = target: Human Norepinephrine Transporter (NET) (Homo sapiens, UniProt P23975); assay: Binding assay to human norepinephrine transporter (NET) ([3H]-Nisoxetin); details: Table 2 (dual compounds); human NET enriched membranes, 5 nM [3H]-Nisoxetin; read-out: Ki(nM) NET Hum
Procedure: Binding Assay to Human Norepinephrine Transporter (NET).
Human norepinephrine transporter (NET) enriched membranes (5 μg) were incubated with 5 nM of radiolabeled [3H]-Nisoxetin in assay buffer containing 50 mM Tris-HCl, 120 mM NaCl, 5 mM KCl, pH 7.4.
as §1, with “desipramine.” for “pregabalin.”, “4°” for “27°”, “Tris-HCl, 0.9% NaCl,” for “Tris-HCl,”
as §2, §3

Sequence of Human Norepinephrine Transporter (NET) (P23975 whole entry): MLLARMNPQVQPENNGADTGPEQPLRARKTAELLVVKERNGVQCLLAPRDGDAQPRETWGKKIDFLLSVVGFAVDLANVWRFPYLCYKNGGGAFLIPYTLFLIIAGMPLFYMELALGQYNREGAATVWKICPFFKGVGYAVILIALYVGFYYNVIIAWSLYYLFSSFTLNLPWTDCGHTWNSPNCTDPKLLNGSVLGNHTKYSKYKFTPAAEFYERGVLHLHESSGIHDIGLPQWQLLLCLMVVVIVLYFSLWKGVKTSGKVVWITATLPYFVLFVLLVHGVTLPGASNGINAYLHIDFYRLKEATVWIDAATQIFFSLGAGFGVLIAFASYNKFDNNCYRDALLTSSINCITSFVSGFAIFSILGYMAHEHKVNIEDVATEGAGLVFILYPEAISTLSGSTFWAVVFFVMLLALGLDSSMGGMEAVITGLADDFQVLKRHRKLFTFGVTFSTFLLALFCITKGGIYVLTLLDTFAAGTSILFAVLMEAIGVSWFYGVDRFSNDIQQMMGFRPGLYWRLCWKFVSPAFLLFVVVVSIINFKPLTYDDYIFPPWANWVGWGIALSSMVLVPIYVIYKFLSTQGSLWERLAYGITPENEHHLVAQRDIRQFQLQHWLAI
Sequence of Human α2δ-1 Subunit of Cav2.2 Calcium Channel (P54289 25-1103): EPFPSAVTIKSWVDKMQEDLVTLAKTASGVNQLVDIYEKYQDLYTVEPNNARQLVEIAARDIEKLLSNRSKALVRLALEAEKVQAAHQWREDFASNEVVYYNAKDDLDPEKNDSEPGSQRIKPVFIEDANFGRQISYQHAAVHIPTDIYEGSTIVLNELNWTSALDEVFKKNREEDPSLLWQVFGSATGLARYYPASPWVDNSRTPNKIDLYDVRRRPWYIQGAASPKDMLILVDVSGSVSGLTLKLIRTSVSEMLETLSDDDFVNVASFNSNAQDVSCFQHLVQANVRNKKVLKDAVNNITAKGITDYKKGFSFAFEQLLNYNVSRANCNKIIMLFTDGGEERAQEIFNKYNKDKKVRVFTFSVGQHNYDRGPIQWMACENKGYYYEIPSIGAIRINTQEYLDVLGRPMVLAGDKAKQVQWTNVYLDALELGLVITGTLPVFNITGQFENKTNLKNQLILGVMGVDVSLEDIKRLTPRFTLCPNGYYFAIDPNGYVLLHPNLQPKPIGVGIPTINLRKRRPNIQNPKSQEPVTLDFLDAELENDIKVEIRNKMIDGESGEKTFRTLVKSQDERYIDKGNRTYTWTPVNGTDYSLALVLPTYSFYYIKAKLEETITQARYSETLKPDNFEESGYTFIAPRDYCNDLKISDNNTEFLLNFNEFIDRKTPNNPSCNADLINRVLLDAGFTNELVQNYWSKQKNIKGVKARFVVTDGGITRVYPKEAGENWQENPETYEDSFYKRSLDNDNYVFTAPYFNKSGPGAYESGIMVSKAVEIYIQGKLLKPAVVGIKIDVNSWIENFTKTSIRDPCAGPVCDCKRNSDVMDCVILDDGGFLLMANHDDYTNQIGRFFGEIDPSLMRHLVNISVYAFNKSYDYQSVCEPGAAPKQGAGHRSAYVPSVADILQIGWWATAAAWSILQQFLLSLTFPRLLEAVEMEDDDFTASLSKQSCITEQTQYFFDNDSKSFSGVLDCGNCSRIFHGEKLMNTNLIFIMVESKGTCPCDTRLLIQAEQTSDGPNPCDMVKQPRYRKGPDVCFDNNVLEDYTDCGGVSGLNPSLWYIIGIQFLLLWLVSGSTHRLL

Ki ([1]; Table 1) [nM]	Ki ([1]; Table 2 (dual compounds)) [nM]	Ki [2] [nM]	SMILES
500 to 3000	500 to 3000	100 to 500	CNCCC(Oc1cccc(CNCc2ccccc2)c1)c1cccs1 (stereo not drawn) [Example 2, 3-(3-((Benzylamino)methyl)phenoxy)-N-methyl-3-(thiophen-2-yl)propan-1-amine]
100 to 500	100 to 500	500 to 1000	CNCCC(Oc1cccc(CN(C)Cc2ccccc2)c1)c1cccs1 (stereo not drawn) [Example 6, 3-(3-((Benzyl(methyl)amino)methyl)phenoxy)-N-methyl-3-(thiophen-2-yl)propan-1-amine]
≥ 3000	≥ 3000	500 to 1000	CNCCC(OCc1cccc(NC(=O)c2ccccn2)c1)c1ccccc1 (stereo not drawn) [Example 43, N-(3-((3-(methylamino)-1-phenylpropoxy)methyl)phenyl)picolinamide]
≥ 3000	≥ 3000	100 to 500	CNCCC(OCc1cccc(Nc2ccccc2)c1)c1ccccc1 (stereo not drawn) [Example 58, 3-((3-(Methylamino)-1-phenylpropoxy)methyl)-N-phenylaniline]
≥ 3000	≥ 3000	500 to 1000	CNCCC(OCc1cccc(NC(=O)c2ccccc2)c1)c1cccs1 (stereo not drawn) [Example 46, N-(3-((3-(methylamino)-1-(thiophen-2-yl)propoxy)methyl)phenyl)benzamide]
≥ 3000	≥ 3000	< 100	CNCCC(Oc1ccc(CNCc2ccccc2)c(F)c1)c1cccs1 (stereo not drawn) [Example 71, 3-(4-((Benzylamino)methyl)-3-fluorophenoxy)-N-methyl-3-(thiophen-2-yl)propan-1-amine]
≥ 3000	≥ 3000	500 to 1000	CNCCC(Oc1cccc(C(=O)NCc2ccccc2)c1)c1ccccc1 (stereo not drawn) [Example 17, N-benzyl-3-(3-(methylamino)-1-phenylpropoxy)benzamide]
≥ 3000	≥ 3000	500 to 1000	CNCCC(Oc1cccc(C(=O)NCc2ccccn2)c1)c1ccccc1 (stereo not drawn) [Example 18, 3-(3-(Methylamino)-1-phenylpropoxy)-N-(pyridin-2-ylmethyl)benzamide]
≥ 3000	≥ 3000	500 to 1000	CNCCC(OCc1cccc(NC(=O)c2cnc(OC)nc2)c1)c1ccccc1 (stereo not drawn) [Example 41, 2-Methoxy-N-(3-((3-(methylamino)-1-phenylpropoxy)methyl)phenyl)pyrimidine-5-carboxamide]
≥ 3000	≥ 3000	100 to 500	CNCCC(Oc1cccc(C(=O)Nc2cccc(-c3nnc(C)o3)c2)c1)c1ccccc1 (stereo not drawn) [Example 14, N-(3-(5-methyl-1,3,4-oxadiazol-2-yl)phenyl)-3-(3-(methylamino)-1-phenylpropoxy)benzamide]
≥ 3000	≥ 3000	500 to 1000	CNCCC(OCc1cccc(NC(=O)c2ccccc2F)c1)c1cccs1 (stereo not drawn) [Example 48, 2-Fluoro-N-(3-((3-(methylamino)-1-(thiophen-2-yl)propoxy)methyl)phenyl)benzamide]
≥ 3000	≥ 3000	100 to 500	CNCCC(Oc1ccc(CN(C)Cc2ccccc2)c(F)c1)c1cccs1 (stereo not drawn) [Example 70, 3-(4-((Benzyl(methyl)amino)methyl)-3-fluorophenoxy)-N-methyl-3-(thiophen-2-yl)propan-1-amine]
≥ 3000	≥ 3000	500 to 1000	CNCCC(OCc1cccc(NC(=O)c2ccccc2)c1)c1ccccc1 (stereo not drawn) [Example 39, N-(3-((3-(methylamino)-1-phenylpropoxy)methyl)phenyl)benzamide]
500 to 3000	500 to 3000	≥ 1000	CNCCC(Oc1cccc(C(=O)NC2CCN(C)CC2)c1)c1ccccc1 (stereo not drawn) [Example 22, 3-(3-(Methylamino)-1-phenylpropoxy)-N-(1-methylpiperidin-4-yl)benzamide]
